# Results: US7244557B2, “Method of screening modulators of Nod1 signaling” (Regents of the University of Michigan, priority 2003, dated 2007)
# Molecular target: T1, NOD1 (Homo sapiens, UniProt Q9Y239)
# T1 construct: expressed in transfected cells; host or cells: HEK293T
# T1 sequence (Q9Y239 1-953): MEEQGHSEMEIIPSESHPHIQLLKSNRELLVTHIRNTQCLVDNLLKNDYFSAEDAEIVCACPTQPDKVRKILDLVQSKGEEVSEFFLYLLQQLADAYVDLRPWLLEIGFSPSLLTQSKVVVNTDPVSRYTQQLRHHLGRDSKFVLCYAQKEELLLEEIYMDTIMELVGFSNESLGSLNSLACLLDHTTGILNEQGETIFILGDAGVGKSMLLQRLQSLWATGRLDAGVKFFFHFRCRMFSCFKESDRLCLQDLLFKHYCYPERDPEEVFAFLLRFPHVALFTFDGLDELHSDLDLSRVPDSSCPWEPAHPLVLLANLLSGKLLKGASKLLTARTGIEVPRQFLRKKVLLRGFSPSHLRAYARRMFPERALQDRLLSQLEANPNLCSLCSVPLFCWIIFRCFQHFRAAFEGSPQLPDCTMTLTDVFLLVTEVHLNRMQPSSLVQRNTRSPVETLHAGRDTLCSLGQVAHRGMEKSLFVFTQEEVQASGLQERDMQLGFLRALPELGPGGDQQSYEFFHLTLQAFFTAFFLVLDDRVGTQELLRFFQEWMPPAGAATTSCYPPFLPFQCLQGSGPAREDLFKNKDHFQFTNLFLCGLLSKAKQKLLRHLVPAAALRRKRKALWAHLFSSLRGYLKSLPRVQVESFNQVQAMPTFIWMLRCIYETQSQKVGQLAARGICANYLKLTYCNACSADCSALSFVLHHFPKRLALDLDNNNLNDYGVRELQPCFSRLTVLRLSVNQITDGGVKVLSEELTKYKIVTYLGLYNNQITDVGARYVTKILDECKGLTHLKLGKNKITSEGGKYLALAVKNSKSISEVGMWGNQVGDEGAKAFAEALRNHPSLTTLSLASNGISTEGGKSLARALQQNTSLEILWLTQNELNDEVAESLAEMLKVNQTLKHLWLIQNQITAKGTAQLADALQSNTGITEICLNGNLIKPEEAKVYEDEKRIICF
# Assay: NF-κB-dependent luciferase reporter assay, HEK293T cells expressing NOD1
# Type: cell-based
# Source text: Reagents. LPS from S. typhimurium, intact and alkaline-detoxified LPS from E. coli O55:B5 as well as purified lipid A preparations of E. coli F583, MDP, DAP and dsRNA were obtained from Sigma-Aldrich (St. Louis, Mo.). PGN from S. aureus was from Fluka-Chemie (Buchs, Germany). Palmitoyl-Cys ((RS)-2,3-di(palmitoyloxy)-propyl)-Ala-Gly) (sBLP), was obtained from Bachem (Torrance, Calif.). The tetrameric form of the disaccharide dipeptide was described previously (Inohara et al., J. Biol. Chem. 278:5509 [2003]). iE-DAP and iQ-DAP, M3P and M4P were synthesized as described (Kitaura et al., J. Med. Chem. 25:335 [1982]) with small modification. Purification of PGN from B. subtilis 168 and C. flaccumfaciens with hydrolases, Cellosyl or recombinant AtlE (amidase domain) and the fractionation and purification of reduced B. subtilis PGN digested with Cellosyl were performed as previously described (Heilman et al., Mol. Microbiol. 24:1013 [1997]; Atrih et al., J. Bact. 181:3956 [1999]). Removal of proteins and reduction of LPS fraction. E. coli O55:B5 LPS (Sigma) was treated with proteinase K at 37° C. for 12 hr to digest contaminating proteins. To eliminate lipoproteins, LPS was subjected to modified phenol extraction with deoxycholate-containing phenol as described (Hirschfeld et al., J. Immunol. 165:618 [2000]). For reduction of carboxyl group in the LPS, the LPS was treated with 1-ethyl-3-(3-dimethylaminopropyl) carbodiimide and then reduced with NaBH4 as described (Taylor et al., Biochemistry 11:1383 [1972]). Preparation of E. coli extract. E. coli K-12 mutants were all based on the SØ864 genetic background (lacZ trp upp relA rpsL) (Neuhard and Thomassen, J. Bacteriol. 126:999). SØ874 carries a large chromosomal deletion removing the gene clusters for the biosynthesis of CA capsule and O-antigen. CLM5 is a derivative of SØ874 with a transposon insertion in the wecC gene that blocks the synthesis of ECA (Marolda et al., J. Bacteriol. 177:5539[1995]). FAM5 is a derivative of SØ874 carrying a deletion that eliminates the incorporation of heptose in the LPS core. Extracts were prepared from all of these E. coli K-12 strains and also from another E. coli K-12 strain, LCD27 YA21-6 (Obtained from Dr. Arisaka, Tokyo Institute of Technology). Bacteria were cultured overnight at 37° C. in Luria broth, killed by treatment with acetone followed by vacuum drying and finally resuspended in 10 mM HEPES. The extract was treated with 1M NaOH at 55° C. for 12 hr and neutralized with 1M HEPES (pH 7.4). The soluble fraction after centrifugation and filtration with 0.22 μm filter was applied to SUPEROSE 12 gel filtration column chromatography. Partial purification of NOD1-stimulatory molecules from E. coli and composition analyses. The amino acid composition of E. coli O55:B5 LPS was determined using AccQ·Tag amino acid analysis system (Waters, Milford, Mass.) after hydrolysis at 110° C. for 24 hr. For carbohydrate analysis, E coli K-12 YA21-6 (Ref 26) cultured overnight at 37° C. in L-broth were washed with TBS twice and incubated with TBS containing 1 mglml DNase I, RNase I and lysozyme for 37° C. for 2 hr. Acetone was added to the extracts at 50% final concentration and the insoluble fractions were washed with an excess of 75% and 100% acetone. After vacuum drying, the acetone extract was solublized with 1 M NaOH and incubated at 60° C. for 24 hr. The pH was adjusted to pH 5.0 with acetic acid and the soluble fraction was passed through SUPEROSE gel filtration column. SUPEROSE fractions with NOD1-stimulatory activity were diluted with 10 mM Tris-HCl (pH 8.8) and subjected to UnoQ column chromatography. The fractions were eluted with a linear gradient of 0–300 mM NaCl. The positive fractions were dialyzed against water and dried under vacuum. The monosaccharide composition of the fractions after TFA/methanol degradation was determined as previously described (Forsberg et al., J. Biol. Chem. 273:2747[1998]). Transfection and NF-κB Activation Assay. […]
row,Substance,NOD1-dependent NF-κB activation (NOD1 stimulation)
1,γ-D-glutamy-meso-diaminopimelic acid [iE-DAP],stimulated NOD1
2,γ-D-Gln-DAP [iQ-DAP],stimulated NOD1
3,"Palmitoyl-Cys ((RS)-2,3-di(palmitoyloxy)-propyl)-Ala-Gly) [synthetic lipoprotein]",not NOD1
4,MurNAc-L-Ala-γ-D-Gln [MDP],Neither MDP nor tetrameric forms of disaccharide dipeptide (4 mer) stimulated NOD1
